How the values were obtained:
NK1 receptor = biological target: T1, NK1 receptor (Cavia porcellus, UniProt P30547); assay: Test for NK1 receptor antagonist: substance P concentration-response in isolated guinea pig ileum, Schild analysis; assay type: cell-based; details: antagonism of substance P, 10 min pretreatment, Schild method
T1 construct: from tissue; host or cells: isolated guinea pig ileum
Description: (1) Test for NK1 Receptor Antagonist
The method used was according to the method proposed by S. Dion et al. (Dion et al., Life Sciences 41 (1987): 2269), to which minor modifications were made.
Guinea pigs were stunned by a blow on the head and were exsanguinated from the carotid artery and ileum was isolated. The ileum was mounted in an organ bath containing Tyrode's solution which was maintained at 32° C. and gased with 95% O2 and 5% CO2. The ileum was subjected to a resting tension of 1-gram and allowed to equilibrate for 20 minutes before the experiment was started. As a control, a concentration-response curve for substance P obtained in the absence of test compounds was used. The NK1 receptor antagonist activity of each test compound was determined by a concentration-response curve obtained by pretreating at least three concentrations of the test compound for 10 minutes and subsequently applying substance P in a cumulative manner. The Kb values were determined according to the method proposed by Schild and the results are shown in Table 1 (Schild Brit. J. Pharmacol. 14 (1959): 49).
The composition of the Tyrode's solution was as follows: NaCl=136.9, KCl=2.7, CaCl2.2H2O=2.5, MgCl2.6H2O=1.0, NaH2PO4.2H2O=0.4, NaHCO3=11.9, glucose=11.1 (mmol/L)

Guinea pigs = assay: Cystometry test on guinea pigs with cut spinal cord (effective bladder capacity); assay type: in vivo; details: guinea pig
Description: (2) Cystometry Test on Guinea Pigs
The method used was according to the method proposed by J S. Peterson et al. (Peterson J S. et al., J. Pharmacol. Methods 21 (1989): 231), to which minor modifications were made.
Guinea pigs were anesthetized with halothane and the tenth thoracic spinal cord was cut in each animal. Subsequently, both ureters were ligated and were cut on the kidney-side. Polyethylene catheters were inserted into the bladder to provide an injection pathway for physiological saline and a pathway for the measurement of intravesical pressure. Each animal was restricted in a Ballman cage and was left for more than 2 hours. Subsequently, room-temperature saline was injected through the bladder catheter into the bladder at a rate of 6 mL/hr to conduct a cystometry test. After the effective bladder capacity was stabilized, a test compound was intravenously administered from the jugular vein. The effective bladder capacity is defined as the volume of saline injected from one urination to the next. The effect of each test compound was determined as the increase in the average bladder volume, which was determined by taking difference between the average bladder volume measured 30 minutes prior to the administration of the test compound and the average bladder volume measured every 30 minutes after the administration of the test compound.

T1 sequence (P30547 whole entry): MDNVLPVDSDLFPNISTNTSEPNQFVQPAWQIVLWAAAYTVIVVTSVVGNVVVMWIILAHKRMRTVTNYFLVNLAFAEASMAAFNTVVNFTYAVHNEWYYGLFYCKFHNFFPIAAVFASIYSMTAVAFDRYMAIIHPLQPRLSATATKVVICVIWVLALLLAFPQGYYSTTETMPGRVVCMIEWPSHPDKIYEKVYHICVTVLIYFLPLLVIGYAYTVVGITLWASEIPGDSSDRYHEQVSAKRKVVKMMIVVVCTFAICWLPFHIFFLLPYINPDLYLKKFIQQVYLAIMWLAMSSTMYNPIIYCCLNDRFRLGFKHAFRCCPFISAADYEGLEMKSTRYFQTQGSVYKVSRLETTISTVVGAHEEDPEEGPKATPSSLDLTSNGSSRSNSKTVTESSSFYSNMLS

O=C1c2c(-c3ccccc3)cc(N3CCC(N4CCCC4)CC3)nc2OCCCN1Cc1cc(C(F)(F)F)cc(C(F)(F)F)c1 [Example 1, 5-[3,5-bis(trifluoromethyl)benzyl]-6-oxo-7-phenyl-9-[4-(pyrrolidine-1-yl)piperidine-1-yl]-2,3,4,5-tetrahydro-6H-pyrido[2,3-b][1,5]oxazocine] showed a Kb (NK1 receptor) of 0.224 nM.
With O=C1c2c(-c3ccc(F)cc3)cc(N3CCC(N4CCCC4)CC3)nc2OCCCN1Cc1cc(C(F)(F)F)cc(C(F)(F)F)c1 [Example 4, 5-[3,5-bis(trifluoromethyl)benzyl]-7-(4-fluorophenyl)-6-oxo-9-[4-(pyrrolidine-1-yl)piperidine-1-yl]-2,3,4,5-tetrahydro-6H-pyrido[2,3-b][1,5]oxazocine] the Kb (NK1 receptor) was 0.148 nM.
Cc1ccccc1-c1cc(N2CCC(N3CCCC3)CC2)nc2c1C(=O)N(Cc1cc(C(F)(F)F)cc(C(F)(F)F)c1)CCCO2 [Example 7, 5-[3,5-bis(trifluoromethyl)benzyl]-7-(2-methylphenyl)-6-oxo-9-[4-(pyrrolidine-1-yl)piperidine-1-yl]-2,3,4,5-tetrahydro-6H-pyrido[2,3-b][1,5]oxazocine] was tested, and the Kb (NK1 receptor) was 0.21 nM, the “Increase in bladder capacity” value (Guinea pigs; 0.3 mg/kg i.v.) was 24.2% and the “Increase in bladder capacity” value (Guinea pigs; 1 mg/kg i.v.) was 46.0%.
Cc1ccccc1-c1cc(N2CCC(N(C)C)CC2)nc2c1C(=O)N(Cc1cc(C(F)(F)F)cc(C(F)(F)F)c1)CCCO2 [Example 8, 5-[3,5-bis(trifluoromethyl)benzyl]-9-[4-(dimethylamino)piperidine-1-yl]-7-(2-methylphenyl)-6-oxo-2,3,4,5-tetrahydro-6H-pyrido[2,3-b][1,5]oxazocine] showed a Kb (NK1 receptor) of 0.275 nM.
Compound Cc1ccccc1-c1cc(N2CCC(N3CCOCC3)CC2)nc2c1C(=O)N(Cc1cc(C(F)(F)F)cc(C(F)(F)F)c1)CCCO2 [Example 9, 5-[3,5-bis(trifluoromethyl)benzyl]-7-(2-methylphenyl)-9-[4-(morpholine-4-yl)piperidine-1-yl]-6-oxo-2,3,4,5-tetrahydro-6H-pyrido[2,3-b][1,5]oxazocine] has a Kb (NK1 receptor) of 0.0848 nM.
Cc1ccccc1-c1cc(N2CCC(N3CCCC3=O)CC2)nc2c1C(=O)N(Cc1cc(C(F)(F)F)cc(C(F)(F)F)c1)CCCO2 [Example 10, 5-[3,5-bis(trifluoromethyl)benzyl]-7-(2-methylphenyl)-6-oxo-9-[4-(2-oxopyrrolidine-1-yl)piperidine-1-yl]-2,3,4,5-tetrahydro-6H-pyrido[2,3-b][1,5]oxazocine] gave a Kb (NK1 receptor) of 0.286 nM.
CC(=O)NC1CCN(c2cc(-c3ccccc3C)c3c(n2)OCCCN(Cc2cc(C(F)(F)F)cc(C(F)(F)F)c2)C3=O)CC1 [Example 13, 9-[4-(acetylamino)piperidine-1-yl]-5-[3,5-bis(trifluoromethyl)benzyl]-7-(2-methylphenyl)-6-oxo-2,3,4,5-tetrahydro-6H-pyrido[2,3-b][1,5]oxazocine] was tested, and the Kb (NK1 receptor) was 0.17 nM.
For Cc1ccc(-c2c3n(c(=O)c4ncccc24)CC[C@@H](C)CN(Cc2cc(C(F)(F)F)cc(C(F)(F)F)c2)C3=O)cc1 [TAK-637], the “Increase in bladder capacity” value (Guinea pigs; 0.3 mg/kg i.v.) was 12.0%, the “Increase in bladder capacity” value (Guinea pigs; 1 mg/kg i.v.) was 23.8% and the “Increase in bladder capacity” value (Guinea pigs; 3 mg/kg i.v.) was 20.5%.

Reference: US7030107B2, “Fused bicyclic pyridine derivatives as tachykinin receptor antagonists” (Kyorin Pharmaceutical.Co., Ltd., priority 2001, dated 2006)
